Data on 73 sequences can be found in patent US20030068615A1, “Polypeptides that bind HIV gp120 and related nucleic acids, antibodies, compositions, and methods of use” (priority 1999, published 2003).

This test has as its target HIV-1LAI envelope gp120 (Human immunodeficiency virus type 1 group M subtype B, UniProt P03377). The class given is binding. The note with it: for number of radioactive decays (counts) counted: human CD4 21-mer scan, empty control 2075; for Counts per 20′ Average-background: CCR5 18-mer scan, radiolabeled HIV-1LAI gp120; for Binding Results For Window Length (counts bound-background), 9: 9-mer starting at the first residue of the printed sequence.

Setting [1] is: Panel E, 9-mers and 12-mers of CD4, empty control 571.
Setting [2] is: Panel C, 15-mers and 18-mers of CD4, empty control 556.
Setting [3] is: Panel D, 9-mers and 12-mers of CD4, empty control […].
Where [4] appears, read: Panel B, 15-mers and 18-mers of CD4, empty control 575.
Where [5] appears, read: STRL33 18-mer scan, background subtracted, first of two count columns.
The mark [6] stands for this setting: STRL33 18-mer scan, background subtracted, second of two count columns.
Setting [7] is: CXCR4 18-mer scan, background subtracted, empty control 0.
Setting [8] is: CXCR4 18-mer scan, empty control 412.
Where [9] appears, read: Panel A, 21-mers of CD4, empty control 515 and 617.
The mark [10] stands for this setting: STRL33 amino terminus, background subtracted.

Where two headings read alike, the source gives them in different places.

For the sequence “NLTLALEAKTGKLHQEVNLVV [human CD4 296-316]”, the “number of radioactive decays (counts) counted” value (from here on “number of radioactive decays”) amounted to 1676 counts. NPIIYAFVGEKFRNYLLV [CCR5 segment 293-]: the “Counts per 20′ Average-background” value (background subtracted) was 162 counts per 20′. In the case of NQKKVEFKI, under setting [1], the “COUNTS of radiolabeled gp120 retained” value is given as 597 counts.

Take NQKKVEFKIDIV: the “COUNTS of radiolabeled gp120 retained” value under setting [1] is 532 counts.

As for NQKKVEFKIDIVVLA, under setting [2], the “COUNTS of radiolabeled gp120 retained” value was found to be 860 counts.

Consider NQKKVEFKIDIVVLAFQK, for which the “COUNTS of radiolabeled gp120 retained” value under setting [2] is listed as 889 counts. In the case of NRLDQAMQVTETLGMTHC [CCR5 segment 273-], the “Counts per 20′ Average-background” value (background subtracted) stood at 10 counts per 20′. NSDTHLLQG: under setting [3], the “COUNTS of radiolabeled gp120 retained” value was 561 counts.

For NSDTHLLQGQSL, the “COUNTS of radiolabeled gp120 retained” value under setting [3] was 585 counts. As to NSDTHLLQGQSLTLT, the “COUNTS of radiolabeled gp120 retained” value under setting [4] amounted to 631 counts. For the sequence NSDTHLLQGQSLTLTLES, the “COUNTS of radiolabeled gp120 retained” value under setting [4] turned out to be 1726 counts.

On to “NSIYLVISIFYHKLQSLT [STRL33 segment 49-66]”, for which the “radioactive counts recorded in twenty minutes” value (shortened to “radioactive counts recorded”) is, setting by setting: under setting [5], 1255.5 counts; under setting [6], 1378.5 counts. As for NWYFGNFLCKAVHVIYTV, the “radioactive counts recorded” value reads like this: under setting [7], 96 counts; under setting [8], 508 counts. Consider NYYTSEPCQKINVKQIAA [CCR5 segment 13-30], for which the “Counts per 20′ Average-background” value (background subtracted) amounted to 6 counts per 20′. Turning to “PFRELLLVLQLALLPAATQGK [human CD4, printed 16-26]”, the “number of radioactive decays” value amounted to 4356 counts. Regarding PFWAYAGIHEWVFGQVMC, the “radioactive counts recorded” value by setting is: under setting [5], 7262.5 counts; under setting [6], 7537.5 counts. “PKLMLSLKLENKEAKVSKREK [human CD4 336-356]”: the “number of radioactive decays” value is listed as 1656 counts. Turning to PLAFTVEKL, the “COUNTS of radiolabeled gp120 retained” value under setting [1] is 597 counts.

With PLAFTVEKLTGS, the “COUNTS of radiolabeled gp120 retained” value under setting [1] stood at 528 counts. Regarding PLAFTVEKLTGSGEL, the “COUNTS of radiolabeled gp120 retained” value under setting [2] is on record as 612 counts.

For the sequence PLAFTVEKLTGSGELWWQ, the “COUNTS of radiolabeled gp120 retained” value under setting [2] was 650 counts. For the sequence PLAFTVEKLTGSGELWWQAER, the “COUNTS of radiolabeled gp120 retained” value under setting [9] was 2647 counts. On to PLIIKLNKIEDSDTYICEVED, for which, under setting [9], the “COUNTS of radiolabeled gp120 retained” value was determined as 20145 counts. For PLIIKNLKI, the “COUNTS of radiolabeled gp120 retained” value under setting [3] is listed as 697 counts. In the case of PLIIKNLKIEDS, the “COUNTS of radiolabeled gp120 retained” value under setting [3] was found to be 565 counts. PLIIKNLKIEDSDTY: the “COUNTS of radiolabeled gp120 retained” value under setting [4] is on record as 661 counts. Still for that read-out and setting: then PLIIKNLKIEDSDTYICE, with 624 counts. Consider PMALIVLGGVAGLLLFIGLGI, for which the “number of radioactive decays” value is on record as 3067 counts. As to PQIIYGNVFNLDKLICGY, the “radioactive counts recorded” value under setting [5] is −18.5 counts and the “radioactive counts recorded” value under setting [6] is −37.5 counts.

For the sequence “PVLYAFVSLKFRKNFWKL [STRL33 segment 285-302]”, the “radioactive counts recorded” value came to 1859.5 counts under setting [5] and 2147.5 counts under setting [6].

As to “QAERASSSKSWITFDLINKEV [human CD4 241-261]”, the “number of radioactive decays” value turned out to be 2588 counts. In the case of QAFLQFSKV, under setting [10], the “Binding Results For Window Length (counts bound-background), 9” value stood at 2600 counts.

With QAKRMTWGKVTSLLIWVI, the “radioactive counts recorded” value is −71.5 counts under setting [5] and −31.5 counts under setting [6].

As to “QALPQYAGSGNLTLALEAKTG [human CD4 286-306]”, the “number of radioactive decays” value is given as 2364 counts.

For QAMQVTETLGMTHCCINP [CCR5 segment 277-], for the setting “background subtracted”, the “Counts per 20′ Average-background” value came out at 81 counts per 20′.

For the sequence QEAPERASSVYTRSTGEQ [CCR5 segment 329-], for the setting “background subtracted”, the “Counts per 20′ Average-background” value amounted to 84 counts per 20′. In the case of QEEHQAFLQFSK, the “Binding Results For Window Length (counts bound-background), 9” value under setting [10] is on record as 1109 counts. Besides, the “Binding Results For Window Length (counts bound-background), 12” value (STRL33 amino terminus, 12-mer starting at the first residue of the printed sequence, background subtracted) came out at 5672 counts. Consider QEFFGLNNCSSSNRLDQA [CCR5 segment 261-], for which the “Counts per 20′ Average-background” value (background subtracted) is 63 counts per 20′.

Regarding QGNFPLIIK, under setting [3], the “COUNTS of radiolabeled gp120 retained” value came out at 508 counts.

For QGNFPLIIKNLK, under setting [3], the “COUNTS of radiolabeled gp120 retained” value was determined as 533 counts.

For QGNFPLIIKNLKIED, under setting [4], the “COUNTS of radiolabeled gp120 retained” value worked out at 509 counts. Take QGNFPLIIKNLKIEDSDT: the “COUNTS of radiolabeled gp120 retained” value under setting [4] is recorded as 564 counts. For QGQSLTLTL, the “COUNTS of radiolabeled gp120 retained” value under setting [3] was found to be 594 counts. As for QKASSIVYK, the “COUNTS of radiolabeled gp120 retained” value under setting [1] turned out to be 494 counts. For the sequence QKASSIVYKKEG, the “COUNTS of radiolabeled gp120 retained” value under setting [1] was determined as 596 counts.

QKASSIVYKKEGEQV: under setting [2], the “COUNTS of radiolabeled gp120 retained” value worked out at 519 counts. Regarding QKASSIVYKKEGEQVEFS, the “COUNTS of radiolabeled gp120 retained” value under setting [2] is 602 counts. In the case of QKASSIVYKKEGEQVEFSFPL, the “COUNTS of radiolabeled gp120 retained” value under setting [9] was 24959 counts. For QKEEVQLLV, the “COUNTS of radiolabeled gp120 retained” value under setting [3] came out at 636 counts. On the same count and under the same terms, then QKEEVQLLVFGL, with 1785 counts.

As for QKEEVQLLVFGLTAN, under setting [4], the “COUNTS of radiolabeled gp120 retained” value was found to be 3770 counts. The same measure, in the same setting: for QKEEVQLLVFGLTANSDT the value was 3671 counts. Regarding QKHIAKRFCKCCSIFQQE [CCR5 segment 313-], for the setting “background subtracted”, the “Counts per 20′ Average-background” value is 23 counts per 20′. On to “QKHRSLKIIFLVMAVFLL [STRL33 segment 225-242]”, for which the “radioactive counts recorded” value was found to be 810.5 counts under setting [5] and 814.5 counts under setting [6].

QKINVKQIAARLLPPLYS [CCR5 segment 21-38]: for the setting “background subtracted”, the “Counts per 20′ Average-background” value came to 20 counts per 20′. Turning to QKKVEFKID, under setting [1], the “COUNTS of radiolabeled gp120 retained” value was found to be 575 counts. QKKVEFKIDIVV: under setting [1], the “COUNTS of radiolabeled gp120 retained” value is given as 595 counts. On to QKKVEFKIDIVVLAF, for which, under setting [2], the “COUNTS of radiolabeled gp120 retained” value is listed as 1333 counts. Regarding QKKVEFKIDIVVLAFQKA, the “COUNTS of radiolabeled gp120 retained” value under setting [2] came to 1013 counts. Take “QKRKALKTTVILILAFFA [CXCR4 segment 233-250]”: the “radioactive counts recorded” value was 283 counts under setting [7] and 695 counts under setting [8]. As for QLLVFGLTA, the “COUNTS of radiolabeled gp120 retained” value under setting [3] turned out to be 822 counts. On to QLLVFGLTANSD, for which, under setting [3], the “COUNTS of radiolabeled gp120 retained” value is on record as 721 counts. Take QLLVFGLTANSDTHL: the “COUNTS of radiolabeled gp120 retained” value under setting [4] turned out to be 865 counts. For QLLVFGLTANSDTHLLQG, the “COUNTS of radiolabeled gp120 retained” value under setting [4] is recorded as 574 counts. In the case of “QLQKNLTCEVWGPTSPKLMLS [human CD4 321-341]”, the “number of radioactive decays” value is given as 1856 counts. Regarding QNQKKVEFK, the “COUNTS of radiolabeled gp120 retained” value under setting [1] was 537 counts. For QNQKKVEFKIDI, under setting [1], the “COUNTS of radiolabeled gp120 retained” value was 559 counts. For the sequence QNQKKVEFKIDIVVL, under setting [2], the “COUNTS of radiolabeled gp120 retained” value was 636 counts.

For the sequence QNQKKVEFKIDIVVLAFQ, under setting [2], the “COUNTS of radiolabeled gp120 retained” value turned out to be 917 counts. With QRPRKLLAEKVVYVGVWI, the “radioactive counts recorded” value by setting is: under setting [7], 127 counts; under setting [8], 539 counts. On to QVEFSFPLA, for which the “COUNTS of radiolabeled gp120 retained” value under setting [1] was determined as 1205 counts. For the sequence QVEFSFPLAFTV, the “COUNTS of radiolabeled gp120 retained” value under setting [1] is recorded as 1636 counts. As to QVEFSFPLAFTVEKL, the “COUNTS of radiolabeled gp120 retained” value under setting [2] is reported as 2047 counts.
